# Results: publication PMC5830399, “Aggregating sequences that occur in many proteins constitute weak spots of bacterial proteostasis” (Nature Communications, 2018)
# Like-named read-outs stand apart in the source and are kept apart here. Peptide text beside a SMILES is read from it.
# Key:
# E. coli BL21 = type: cell-based, Escherichia coli
# Description: (§1) If the bactericidal effect of P2 is indeed mediated by a loss of protein homeostasis, the cellular chaperone machinery would be expected to counteract or limit the effect of the peptide. […] To ensure that this effect was not due to the reduced overall viability of the dnaK deletion strain, we also tested the MIC value at 30 °C and obtained the same result (MIC = 6 μg/mL). This confirms that the direct inhibition of chaperones and proteases is not the principal mechanism of action of P2. […] The deletion strains with the strongest effect largely matched those found in the IBs by MS, including those of the cotranslationally acting chaperones TF (tig), dnaK (Hsp70 family), and its cochaperone dnaJ, as well as the small Hsps hchA (Hsp31), hslO (Hsp33), and ipbA (α-crystallin family). The disaggregase clpB and the aggregation-controlling protease lon also had strong effects.
# (§2) The MICs of active peptides were determined via the Broth microdilution assay according to the EUCAST guideline, which was performed in 96-well polystyrene flat bottom microtiter plates (BD Biosciences). Briefly, a single colony was inoculated into 5 mL LB medium and grown to the end-exponential growth phase in a shaking incubator at 37 °C. Cultures were subsequently diluted to an OD600 (optical density) of 0.002 ([…]) in fresh LB medium. One hundred microliters of LB medium with different concentration of peptides ranging from 100 to 0.75 µg/mL were serially diluted to the sterile 96-well plate (at least three wells in each plate). Afterwards, 100 µL of the diluted bacteria were pipetted into 96-well plates containing different concentration of peptides. In each plate, the grown bacteria with the maximum concentration of carrier and medium were considered as positive and negative controls, respectively. Thereafter, 96-well plates were statically incubated overnight at 37 °C to allow bacterial growth. OD was measured at 590 nm for 1 s using a multipurpose ultraviolet–visible plate reader, and the absorbance of the growth bacteria was measured using a Perkin Elmer spectrophotometer (1420 Multilabel Counter Victor 3).
# Chaperone co-expression plasmids were purchased from Takara set (catalog# 3340), which consists of five different plasmids that contain chaperone plasmids developed by HSP Research Institute Inc. Plasmids were transformed into competent E. coli BL21. The co-expression chaperone strains are chloramphenicol selective of chaperone plasmid (20 μg/mL), and chaperone inducer depending on the chaperone plasmid used. pG-KJE8 (DnaK-dnaJ-grpE araB groES-groEL) induced by L-arabinose (0.5 mg/mL), tetracycline (1–5 ng/mL), pGro7 (groES-groEL) induced by L-arabinose (0.5 mg/mL), pKJE7 (dnaK-dnaJ-grpE) induced by L-arabinose (0.5 mg/mL), pG-Tf2 (groES-groEL-tig) induced by tetracycline (1–5 ng/mL), and pTf16 (tig) induced by L-arabinose (0.5 mg/mL).
# Swiss mice = assay: In vivo toxicity test; parameters: species or system mouse; conditions: Swiss female mice, 30 mg/kg IP once a day for 18 days (Supplementary Note 8)
# Description: The procedures used in the assays were approved by the local Animal Ethics Committee and conform to international standards of animal welfare (Approval P067/2015 of the Ethical Committee of KULeuven). A safe concentration of peptides of […] was used for this experiment.
# Briefly, 5–6-week-old Swiss females were divided into […] (six animals per group) and administered 30 mg/kg of P2 (group A) or vehicle (physiological water pH 7.5) (group B) once a day for 18 days via IP injection. During the treatment period, the clinical, physiological, and behavioral parameters, including body weight, food and water consumption, body condition score, home cage activity, and locomotion were constantly monitored and recorded.
# Three days after the last administration, animals were anesthetized and blood was collected using a standard retro-orbital puncture from each animal. Next, the mice sacrificed and underwent complete necropsy with gross examination and organ weights. The organs (heart, liver, spleen, kidney, bone marrow, brain, lung) were sampled and immersed in fixative in 4% paraformaldehyde. […] Five-micrometer-thick sections taken from these blocks (Thermo Scientific Microm HM355S microtome) were then stained with hematoxylin and eosin (Leica ST5010 Autostainer XL) and evaluated under a Leica DM 2500 light microscope by a board-certified veterinary pathologist. […]
# human erythrocytes = assay: In vitro hemolytic activity test; type: cell-based; conditions: 1 h 37 °C
# Description: The hemolytic activities of peptides were determined by hemolysis against human erythrocytes. Pooled fresh blood was obtained from healthy volunteers (Red Cross Flanders) and erythrocytes were collected by centrifugation 1,000 × g for 5 min (anticoagulated by EDTAK). The pellet was washed three times with phosphate-buffered saline (PBS) and was diluted to a concentration of 8% in PBS. One hundred microliters of 8% red blood cells solution was mixed with 100 µL of serial dilutions of peptides in PBS buffer in 96-well plates (BD Biosciences). The reaction mixtures were incubated for 1 h at 37 °C. Thereupon, the plate was centrifuged for 10 min at 1,000 × g and 100 µL of supernatant was transferred to a sterilized 96-well plate (BD Biosciences, flat bottom). The release of hemoglobin was determined by measuring the absorbance of the supernatant at 405 nm. […] Erythrocytes in 1% Triton and maximum used concentration of vehicle were used as the control of 100 and 0% hemolysis, respectively.
# E. coli K-12 BW25113 = type: cell-based, Escherichia coli
# Description: as §1, §2
# Knockout chaperon strains were purchased from Dharmacon E. coli Keio knockout collection, which contains a set of single-gene deletion mutants for chaperone E. coli K-12 genes. Each deleted gene has been replaced with a kanamycin (30 μg/ mL) resistance cassette.
# E. coli O157:H7 = type: cell-based, Escherichia coli
# Description: as §2
# E. coli O157 = type: cell-based, Escherichia coli; conditions: HPLC-purified peptide
# From the text: In order to investigate whether APR redundancy does result in proteostatic collapse, we selected resynthesized and high-performance liquid chromatography (HPLC)-purified four positive peptides from the screen, P2, P5, P14, and P105, as well as three negative peptides, P3, P4, and P11, and confirmed their MIC and minimum bactericidal concentration (MBC) values (Table 1). […] These IBs, which are also called large polar aggregates, could be stained with pentameric formyl thiophene acetic acid (pFTAA, Fig. 1j and supplementary Fig. 3), an extensively characterized amyloid-specific dye[20]–[22], which specifically binds to amyloid-like aggregates as well as disease-associated protein IBs[22]. This IB-staining pattern could be observed for all bactericidal peptides, but not for any of the other peptides, although some other pFTAA-positive structures could be discerned (Supplementary Fig. 3). We confirmed the cross-β-structure content of IB using thioflavin-T staining and correlative atomic force microscopy nanoimaging and Fourier transform infrared spectroscopy (Supplementary Note 2 and Supplementary Fig. 4).
compound,measurement,setting,value
CC(C)C[C@H](NC(=O)CNC(=O)[C@H](CCCNC(=N)N)NC(=O)[C@@H]1CCCN1C(=O)[C@H](CCCNC(=N)N)NC(=O)[C@H](CCCNC(=N)N)NC(=O)[C@@H](NC(=O)[C@H](CC(C)C)NC(=O)[C@H](C)NC(=O)[C@H](CC(C)C)NC(=O)CNC(=O)[C@H](CC(C)C)NC(=O)CNC(=O)[C@@H](N)CCCNC(=N)N)C(C)C)C(=O)NCC(=O)N[C@@H](CC(C)C)C(=O)N[C@@H](C)C(=O)N[C@@H](CC(C)C)C(=O)N[C@H](C(=O)N[C@@H](CCCNC(=N)N)C(=O)N[C@@H](CCCNC(=N)N)C(=O)O)C(C)C [P2] (H-RGLGLALVRRPRGLGLALVRR-OH),MIC,"E. coli BL21; BL21, plasmid pG-KJE8, overexpressed dnaK-dnaJ-grpE groES-groEL",25 µg/mL
same,MIC,"E. coli BL21; BL21, plasmid pG-Tf2, overexpressed groES-groEL-tig",25 µg/mL
same,MIC,"E. coli BL21; BL21, plasmid pGro7, overexpressed groES-groEL",25 µg/mL
same,MIC,"E. coli BL21; BL21, plasmid pKJE7, overexpressed dnaK-dnaJ-grpE",25 µg/mL
same,MIC,"E. coli BL21; BL21, plasmid pTf16, overexpressed tig",25 µg/mL
same,MIC,"E. coli BL21; BL21 wt, no plasmid",25 µg/mL
same,tolerability in mice,Swiss mice,tolerated P2 treatments well
same,"LC50, concentration inducing 50% lysis of human erythrocytes",human erythrocytes,"1,100 μg/mL"
same,MIC,E. coli K-12 BW25113; KEIO WT,12 µg/mL
same,MIC,"E. coli K-12 BW25113; dnaK deletion strain, tested at 30 °C",6 µg/mL
same,MIC,E. coli K-12 BW25113; gene deletion ∆ clpA,12 µg/mL
same,MIC,E. coli K-12 BW25113; gene deletion ∆ clpB,12 µg/mL
same,MIC,E. coli K-12 BW25113; gene deletion ∆ clpP,12 µg/mL
same,MIC,E. coli K-12 BW25113; gene deletion ∆ clpS,12 µg/mL
same,MIC,E. coli K-12 BW25113; gene deletion ∆ clpX,12 µg/mL
same,MIC,E. coli K-12 BW25113; gene deletion ∆ dnaJ,12 µg/mL
same,MIC,E. coli K-12 BW25113; gene deletion ∆ dnaK,6 µg/mL
same,MIC,E. coli K-12 BW25113; gene deletion ∆ groL,12 µg/mL
same,MIC,E. coli K-12 BW25113; gene deletion ∆ hchA,6 µg/mL
same,MIC,E. coli K-12 BW25113; gene deletion ∆ hslO,12 µg/mL
same,MIC,E. coli K-12 BW25113; gene deletion ∆ htpG,12 µg/mL
same,MIC,E. coli K-12 BW25113; gene deletion ∆ ibpA,12 µg/mL
same,MIC,E. coli K-12 BW25113; gene deletion ∆ ibpB,12 µg/mL
same,MIC,E. coli K-12 BW25113; gene deletion ∆ lon,12 µg/mL
same,MIC,E. coli K-12 BW25113; gene deletion ∆ sulA,12 µg/mL
same,MIC,E. coli K-12 BW25113; gene deletion ∆ tig,12 µg/mL
same,MIC,"E. coli O157:H7; E. coli O157(:H7), HPLC-purified peptide, broth microdilution (EUCAST), LB, overnight 37 °C, OD 590 nm",6 µg/mL
same,"IC50, concentration at which bacterial growth is 50% inhibited",E. coli O157:H7; E. coli O157:H7,1.5 µg/mL
same,MBC,E. coli O157,6 µg/mL
